Our source for the AUC values is ChEMBL document CHEMBL1155377, “SAR of PXR transactivation in benzimidazole-based IGF-1R kinase inhibitors” (Bioorg Med Chem Lett, 2010).

Data set [1] concerns Mus musculus. Briefly: (§1) AUC in mouse plasma at 20 mg/kg, po. It is filed as ADME, organism-based. Further details: dose 20 mg/kg, route oral. To be noted: in vivo.
The nature of data set [2]: as §1. It is filed as ADME, organism-based. Further details: dose 20 mg/kg, route oral. To be noted: plasma.

As usually defined, the AUC is the area under the concentration-time curve, a measure of exposure. Lower therefore signals less exposure. In data set [1], `Cc1cc(N2CCOCC2)cc2[nH]c(-c3c(NCCc4ncn(C)c4Cl)cc[nH]c3=O)nc12` had an AUC of 90 µM·h. Still for that read-out and setting: as for `Cc1cc(N2CCOCC2)cc2[nH]c(-c3c(NC[C@@H](O)c4cccc(Cl)c4)cc[nH]c3=O)nc12`, the figure is 8.2 µM·h. In the case of `COC(=O)N1CCN(C2CCN(c3cc(C)c4nc(-c5c(NC[C@@H](O)c6cccc(Cl)c6)cc[nH]c5=O)[nH]c4c3)CC2)CC1`, the AUC in data set [2] stood at 11 µM·h. `Cc1cc(N2CCOCC2)cc2[nH]c(-c3c(NCCn4cc(Cl)cn4)cc[nH]c3=O)nc12` showed an AUC in data set [1] of 51 µM·h. As to `COC(=O)N1CCN(C2CCN(c3cc(C)c4nc(-c5c(NCCn6cc(Cl)cn6)cc[nH]c5=O)[nH]c4c3)CC2)CC1`, the AUC in data set [2] was 52 µM·h. Still for that read-out and setting: under `COC(=O)N1CCN(C2CCN(c3cc(C)c4nc(-c5c(NCCc6ncn(C)c6Cl)cc[nH]c5=O)[nH]c4c3)CC2)CC1` stands 48 µM·h.
